Measurements reported in the NIST ThermoML archive (doi:10.1016/j.tca.2005.11.041).
± gives the expanded uncertainty stated by the source.

Test: excess molar enthalpy (molar enthalpy of mixing); xn = mol fraction of the nth substance listed
Settings: Liquid, Flow calorimetry

COC=O [methyl methanoate] + CCCO
excess molar enthalpy [kcal/mol]
Settings	298.15 K	333.15 K
5000 kPa, x1 = 0.0399	0.0784 ± 0.000789	–
5000 kPa, x1 = 0.0788	0.1484 ± 0.00134	–
5000 kPa, x1 = 0.1201	0.2123 ± 0.00184	–
5000 kPa, x1 = 0.1621	0.2668 ± 0.00225	–
5000 kPa, x1 = 0.2066	0.3134 ± 0.00263	–
5000 kPa, x1 = 0.2501	0.3511 ± 0.00287	–
5000 kPa, x1 = 0.2944	0.38 ± 0.00311	–
5000 kPa, x1 = 0.3414	0.4016 ± 0.00335	–
5000 kPa, x1 = 0.3893	0.4175 ± 0.00335	–
5000 kPa, x1 = 0.4381	0.4248 ± 0.00359	–
5000 kPa, x1 = 0.4878	0.4274 ± 0.00359	–
5000 kPa, x1 = 0.5386	0.4217 ± 0.00335	–
5000 kPa, x1 = 0.5903	0.4078 ± 0.00335	–
5000 kPa, x1 = 0.6452	0.3837 ± 0.00311	–
5000 kPa, x1 = 0.699	0.3526 ± 0.00287	–
5000 kPa, x1 = 0.7562	0.3063 ± 0.00263	–
5000 kPa, x1 = 0.8146	0.2533 ± 0.00215	–
5000 kPa, x1 = 0.8743	0.1849 ± 0.00163	–
5000 kPa, x1 = 0.9376	0.09713 ± 0.000932	–
10000 kPa, x1 = 0.0398	0.08184 ± 0.000813	–
10000 kPa, x1 = 0.0403	–	0.0804 ± 0.000813
10000 kPa, x1 = 0.0786	0.1545 ± 0.00139	–
10000 kPa, x1 = 0.0788	–	0.1602 ± 0.00143
10000 kPa, x1 = 0.1197	0.2204 ± 0.00189	–
10000 kPa, x1 = 0.1205	–	0.2359 ± 0.00201
10000 kPa, x1 = 0.1616	0.2756 ± 0.00232	–
10000 kPa, x1 = 0.1629	–	0.3022 ± 0.00263
10000 kPa, x1 = 0.2061	0.3245 ± 0.00263	0.3577 ± 0.00287
10000 kPa, x1 = 0.2495	0.3621 ± 0.00311	–
10000 kPa, x1 = 0.25	–	0.4038 ± 0.00335
10000 kPa, x1 = 0.2937	0.3913 ± 0.00311	–
10000 kPa, x1 = 0.2948	–	0.4424 ± 0.00359
10000 kPa, x1 = 0.3404	–	0.4715 ± 0.00382
10000 kPa, x1 = 0.3407	0.4134 ± 0.00335	–
10000 kPa, x1 = 0.3868	–	0.4918 ± 0.00406
10000 kPa, x1 = 0.3885	0.4284 ± 0.00359	–
10000 kPa, x1 = 0.437	–	0.5043 ± 0.00406
10000 kPa, x1 = 0.4373	0.436 ± 0.00359	–
10000 kPa, x1 = 0.4853	–	0.5087 ± 0.00406
10000 kPa, x1 = 0.487	0.4358 ± 0.00359	–
10000 kPa, x1 = 0.5374	–	0.5014 ± 0.00406
10000 kPa, x1 = 0.5377	0.428 ± 0.00359	–
10000 kPa, x1 = 0.5895	0.4126 ± 0.00335	–
10000 kPa, x1 = 0.5907	–	0.4864 ± 0.00406
10000 kPa, x1 = 0.6444	0.3875 ± 0.00311	–
10000 kPa, x1 = 0.645	–	0.4589 ± 0.00382
10000 kPa, x1 = 0.6983	0.3565 ± 0.00287	–
10000 kPa, x1 = 0.7005	–	0.4193 ± 0.00335
10000 kPa, x1 = 0.7556	0.3115 ± 0.00263	–
10000 kPa, x1 = 0.7572	–	0.3654 ± 0.00311
10000 kPa, x1 = 0.8141	0.2558 ± 0.00217	–
10000 kPa, x1 = 0.8151	–	0.3029 ± 0.00263
10000 kPa, x1 = 0.8739	0.1848 ± 0.00163	–
10000 kPa, x1 = 0.8743	–	0.2236 ± 0.00191
10000 kPa, x1 = 0.9347	–	0.1235 ± 0.00115
10000 kPa, x1 = 0.9374	0.09637 ± 0.000932	–

COC=O [methyl methanoate] + CCCCCO
298.15 K
Settings	excess molar enthalpy [kcal/mol]
5000 kPa, x1 = 0.0507	0.1315 ± 0.0012
5000 kPa, x1 = 0.0997	0.2364 ± 0.00201
5000 kPa, x1 = 0.1503	0.3231 ± 0.00263
5000 kPa, x1 = 0.2004	0.3893 ± 0.00311
5000 kPa, x1 = 0.2494	0.4395 ± 0.00359
5000 kPa, x1 = 0.2991	0.4781 ± 0.00382
5000 kPa, x1 = 0.3496	0.5052 ± 0.00406
5000 kPa, x1 = 0.4005	0.5217 ± 0.0043
5000 kPa, x1 = 0.4488	0.5278 ± 0.0043
5000 kPa, x1 = 0.4998	0.5254 ± 0.0043
5000 kPa, x1 = 0.5506	0.5101 ± 0.00406
5000 kPa, x1 = 0.6009	0.493 ± 0.00406
5000 kPa, x1 = 0.6503	0.4643 ± 0.00382
5000 kPa, x1 = 0.6986	0.4309 ± 0.00359
5000 kPa, x1 = 0.7492	0.3859 ± 0.00311
5000 kPa, x1 = 0.7983	0.3299 ± 0.00263
5000 kPa, x1 = 0.8497	0.2628 ± 0.00222
5000 kPa, x1 = 0.8992	0.181 ± 0.00158
5000 kPa, x1 = 0.9509	0.08525 ± 0.000837
10000 kPa, x1 = 0.0505	0.1287 ± 0.0012
10000 kPa, x1 = 0.0994	0.2336 ± 0.00198
10000 kPa, x1 = 0.1499	0.3196 ± 0.00263
10000 kPa, x1 = 0.1998	0.386 ± 0.00311
10000 kPa, x1 = 0.251	0.438 ± 0.00359
10000 kPa, x1 = 0.3009	0.476 ± 0.00382
10000 kPa, x1 = 0.3488	0.5032 ± 0.00406
10000 kPa, x1 = 0.3997	0.5192 ± 0.0043
10000 kPa, x1 = 0.4509	0.5253 ± 0.0043
10000 kPa, x1 = 0.499	0.5227 ± 0.0043
10000 kPa, x1 = 0.5498	0.5116 ± 0.00406
10000 kPa, x1 = 0.6001	0.4941 ± 0.00406
10000 kPa, x1 = 0.6496	0.4661 ± 0.00382
10000 kPa, x1 = 0.7017	0.4273 ± 0.00359
10000 kPa, x1 = 0.7486	0.3851 ± 0.00311
10000 kPa, x1 = 0.802	0.3276 ± 0.00263
10000 kPa, x1 = 0.8493	0.2631 ± 0.00222
10000 kPa, x1 = 0.8988	0.1821 ± 0.0016
10000 kPa, x1 = 0.9507	0.0824 ± 0.000837

COC=O [methyl methanoate] + CCC(C)O
excess molar enthalpy [kcal/mol], 298.15 K
Settings	5000 kPa	10000 kPa
x1 = 0.0501	0.1085 ± 0.00103	–
x1 = 0.0996	–	0.2144 ± 0.00184
x1 = 0.1	0.2057 ± 0.00177	–
x1 = 0.1496	0.2851 ± 0.00239	–
x1 = 0.15	–	0.2904 ± 0.00239
x1 = 0.1994	–	0.3556 ± 0.00287
x1 = 0.2	0.3517 ± 0.00287	–
x1 = 0.2493	–	0.4085 ± 0.00335
x1 = 0.2496	0.4039 ± 0.00335	–
x1 = 0.2997	–	0.4503 ± 0.00359
x1 = 0.2999	0.4445 ± 0.00359	–
x1 = 0.3504	–	0.4797 ± 0.00382
x1 = 0.3508	0.4745 ± 0.00382	–
x1 = 0.3993	–	0.4997 ± 0.00406
x1 = 0.4004	0.4926 ± 0.00406	–
x1 = 0.4503	0.5028 ± 0.00406	–
x1 = 0.4504	–	0.5095 ± 0.00406
x1 = 0.4992	–	0.5099 ± 0.00406
x1 = 0.5003	0.5039 ± 0.00406	–
x1 = 0.5501	–	0.5012 ± 0.00406
x1 = 0.5505	0.4958 ± 0.00406	–
x1 = 0.6006	0.4793 ± 0.00382	0.4852 ± 0.00406
x1 = 0.6505	0.4572 ± 0.00382	–
x1 = 0.6508	–	0.4587 ± 0.00382
x1 = 0.7002	0.4214 ± 0.00335	–
x1 = 0.7003	–	0.4234 ± 0.00359
x1 = 0.7491	–	0.3804 ± 0.00311
x1 = 0.7494	0.3806 ± 0.00311	–
x1 = 0.7997	–	0.3235 ± 0.00263
x1 = 0.8004	0.3283 ± 0.00263	–
x1 = 0.8494	–	0.2584 ± 0.0022
x1 = 0.8509	0.2606 ± 0.0022	–
x1 = 0.9006	0.1836 ± 0.0016	–
x1 = 0.9008	–	0.1743 ± 0.00153
x1 = 0.9495	0.09928 ± 0.000956	–
